Data set [1] can be described thus: Stability of the crystals removed from the mother liquor. Type of data set: physicochemical. Particulars: when removed from the mother liquor.
A short description of data set [2]: Solubility of the Ti(IV)-maltol complexes in water and in CH2Cl2. The data set is classed as physicochemical. The method, then:
Alternatively, more than two (and preferably three) equivalents of maltol could be used to provide an excess and ensure completion of the reaction.
However, at pH of 8.4 the complex becomes soluble in water but promotes tetramerization of the [Ti(maltolato)2(OH)2] species. In fact, this can be monitored by NMR spectroscopy. A pure sample of cis-[Ti(maltolato)2(OH)2] was dissolved in D2O at pH of 8.4. […] These two species belong most likely to cis-[Ti(maltolato)2(OH)2] and [Ti4(maltolato)8(μ-O)4]. After 24 hours the tetrameric species continues increasing while the monomeric species decreases. Upon standing for two weeks, at pH of 8.4, this solution yields orange crystals suitable for X-ray diffraction. Evidently, Ti(maltolato)2(OH)2 further reacts to form a tetranuclear titanium complex, which crystallizes as a hydrate, [Ti4(maltolato)8(μ-O)4].18H2O, Single crystal X-ray structure determination was pursued on this high pH species, which solid state structure is illustrated in FIG. 2. The crystal data and structure refinement details as well as the bonding parameters are summarized below in Table 1 and Table 2, respectively.
Electrochemical behavior of Ti(maltolato)2(OH)2 was investigated using cyclic voltammetry (cv). Ti(maltolato)2(OH)2 in CH2Cl2/[NBu4] […] If this potential is compared with previously reported Ti(IV)-maltol and Ti(IV)-guaiacol complexes, it resembles to reduction potentials of monomeric species such as Ti(maltolato)2(OEt)2 (−1.0 V) and Ti(maltolato)2(Cl)2 (−1.55 V) and not to the tetrameric species [Ti4(guaiacolato)8(μ-O)4] (−1.94 V).

For data set [3] the following is noted: physiological pH; cited from earlier work.

Take `Cc1occc(=O)c1[O-].Cc1occc(=O)c1[O-].Cc1occc(=O)c1[O-].Cc1occc(=O)c1[O-].Cc1occc(=O)c1[O-].Cc1occc(=O)c1[O-].Cc1occc(=O)c1[O-].Cc1occc(=O)c1[O-].O.O.O.O.O.O.O.O.O.O.O.O.O.O.O.O.O.O.[O-2].[O-2].[O-2].[O-2].[Ti+4].[Ti+4].[Ti+4].[Ti+4]` [[Ti4(maltolato)8(μ-O)4].18H2O]: the stability of crystals result in data set [1] is “unstable and undergoes dehydration”.

With `Cc1occc(=O)c1[O-].Cc1occc(=O)c1[O-].Cc1occc(=O)c1[O-].Cc1occc(=O)c1[O-].Cc1occc(=O)c1[O-].Cc1occc(=O)c1[O-].Cc1occc(=O)c1[O-].Cc1occc(=O)c1[O-].[O-2].[O-2].[O-2].[O-2].[Ti+4].[Ti+4].[Ti+4].[Ti+4]` [[Ti4(maltolato)8(μ-O)4]], in data set [2] (CH2Cl2, cyclic voltammetry attempt), the “solubility in CH2Cl2” value is “lack of solubility”.

On to `CC(=O)[CH-]C(=O)c1ccccc1.CC(=O)[CH-]C(=O)c1ccccc1.CC[O-].CC[O-].[Ti+4]` [budotitane], for which the hydrolytic stability result in data set [3] is recorded as “low hydrolytic stability”. Take “dihydroxobis(maltolato)titanium(IV) [Ti(maltolato)2(OH)2]”: the solubility in water entry is “slightly water soluble” in data set [2] (low pH (5.4)) and “soluble” in data set [2] (pH of 8.4, promotes tetramerization). Consider titanocene dichloride, for which the hydrolytic stability entry in data set [3] was “low hydrolytic stability”.

Values taken from patent US8101783B1, “Titanium-maltol compound and method of synthesizing the same” (priority 2007, dated 2012).
